Test results: patent publication US11253525B2, “Inhibitors of indoleamine 2,3-dioxygenase and methods of their use” (BRISTOL-MYERS SQUIBB COMPANY, priority 2018, dated 2022)

Biological target: T1, indoleamine 2,3-dioxygenase (IDO) (Homo sapiens, UniProt P14902)
T1 construct: replaced with media containing IFNγ (#285-IF/CF, R&D Systems) at a final concentration of 25 ng/mL; endogenous in cells; host or cells: HeLa (ATCC CCL-2), IFN-gamma stimulated
Test: HeLa cell-based indoleamine 2,3-dioxygenase (IDO) assay, kynurenine production
Settings: HeLa cells, IFNγ 25 ng/mL, 48 hour incubation; read-out: IDO Hela IC50
Description: Assessment of Inhibitor Activity in HeLa Cell-Based Indoleamine 23-Dioxygenase (IDO) Assay
Cells were maintained in a humidified incubator at 37° C. in 5% CO2.
IDO activity was assessed as a function of kynurenine production as follows: HeLa cells were seeded in a 96-well culture plate at a density of 5,000 cells/well and allowed to equilibrate overnight. […] A serial dilution of each test compound was added to the cells in a total volume of 200 μL of culture medium. After a further 48 hour incubation, 170 μL of supernatant was transferred from each well to a fresh 96-well plate. 12.1 μL of 6.1N trichloroacetic acid (#T0699, Sigma-Aldrich) was added to each well and mixed, followed by incubation at 65° C. for 20 minutes to hydrolyze N-formylkynurenine, the product of indoleamine 2,3-dioxygenase, to kynurenine. The reaction mixture was then centrifuged for 10 mins at 500×g to sediment the precipitate. 100 μL of the supernatant was transferred from each well to a fresh 96-well plate. […] Kynurenine concentrations were determined by measuring absorbance at 480 nm and calibrating against an L-kynurenine (#K8625, Sigma-Aldrich) standard curve using a SPECTRAMAX® M2e microplate reader (Molecular Devices). The percentage activity at each inhibitor concentration was determined and IC50 values assessed using nonlinear regression.

T1 sequence (P14902 whole entry): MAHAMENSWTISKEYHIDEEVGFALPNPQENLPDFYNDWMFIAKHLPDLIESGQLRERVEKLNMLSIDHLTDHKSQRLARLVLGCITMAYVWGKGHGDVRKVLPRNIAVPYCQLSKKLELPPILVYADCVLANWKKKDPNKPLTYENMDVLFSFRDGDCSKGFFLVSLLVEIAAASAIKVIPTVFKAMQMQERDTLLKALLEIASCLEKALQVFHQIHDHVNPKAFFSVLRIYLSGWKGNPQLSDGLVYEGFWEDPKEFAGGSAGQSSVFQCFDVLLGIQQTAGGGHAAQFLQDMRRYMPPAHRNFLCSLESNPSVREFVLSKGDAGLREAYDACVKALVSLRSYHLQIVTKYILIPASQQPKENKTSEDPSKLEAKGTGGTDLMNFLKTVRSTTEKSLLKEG

| SMILES | IC50 |
| --- | --- |
| CCOc1ncc(Nc2cc([C@@H](CC)CC(=O)O)ccc2[C@@H](OCC)C(F)(F)F)cn1 (relative stereo) [Example 24, (S)-3-(4-((R)-1-ethoxy-2,2,2-trifluoroethyl)-3-((2-ethoxypyrimidin-5-yl)amino)phenyl)pentanoic acid] | 10 nM |
| CCO[C@@H](c1ccc([C@H](CC)CC(=O)O)cc1Nc1cnc(OC)cn1)C(F)(F)F (relative stereo) [Example 36, (R)-3-(4-((S)-1-ethoxy-2,2,2-trifluoroethyl)-3-((5-methoxypyrazin-2-yl)amino)phenyl)pentanoic acid] | 30 nM |
| CCO[C@H](c1ccc([C@H](COC)CC(=O)O)cc1Nc1cnc(OC)nc1)C(F)(F)F (relative stereo) [Example 54, 3-(4-(1-ethoxy-2,2,2-trifluoroethyl)-3-((2-methoxypyrimidin-5-yl)amino)phenyl)-4-methoxybutanoic Acid] | 100 nM |
| CCO[C@H](c1ccc([C@H](COC)CC(=O)O)cc1Nc1ccc(C#N)cc1)C(F)(F)F (relative stereo) [Example 57, (R)-3-(3-((4-cyanophenyl)amino)-4-((R)-1-ethoxy-2,2,2-trifluoroethyl)phenyl)-4-methoxybutanoic acid] | 10 nM |
| CCO[C@@H](c1ccc([C@H](COC)CC(=O)O)cc1Nc1ccc(C#N)c(F)c1)C(F)(F)F (relative stereo) [Example 70, (R)-3-(3-((4-cyano-3-fluorophenyl)amino)-4-((S)-1-ethoxy-2,2,2-trifluoroethyl)phenyl)-4-methoxybutanoic acid] | 30 nM |
| CCO[C@@H](c1ccc([C@H](COC)CC(=O)O)cc1Nc1ccc(C#N)cc1)C(F)(F)F (relative stereo) [Example 73, (R)-3-(3-((4-cyanophenyl)amino)-4-((S)-1-ethoxy-2,2,2-trifluoroethyl)phenyl)-4-methoxybutanoic acid] | 10 nM |
| CCO[C@H](c1ccc([C@H](CC)CC(=O)O)cc1NC(=O)Nc1ccc(C)cc1)C(F)(F)F (single isomer, unassigned) [Example 7] | 60 nM |
| CCO[C@H](c1ccc([C@H](CC)CC(=O)O)cc1NC(=O)Nc1ccc(Cl)cc1F)C(F)(F)F (single isomer, unassigned) [Example 9] | 10 nM |
| CCOc1ncc(Nc2cc([C@H](CC)CC(=O)O)ccc2[C@@H](OCC)C(F)(F)F)cn1 (single isomer, unassigned) [Example 12] | 20 nM |
| CCOc1cnc(Nc2cc([C@H](CC)CC(=O)O)ccc2[C@@H](OCC)C(F)(F)F)cn1 (single isomer, unassigned) [Example 13] | 10 nM |
| CCO[C@H](c1ccc([C@H](CC)CC(=O)O)cc1Nc1cnc(OC)cn1)C(F)(F)F (single isomer, unassigned) [Example 14] | 10 nM |

More lines, now with the values ahead:

| IC50 | SMILES |
| --- | --- |
| 130 nM | CCO[C@H](c1ccc([C@H](CC)CC(=O)O)cc1Nc1cnc(C)nc1)C(F)(F)F (relative stereo) [Example 17, (R)-3-(4-((R)-1-ethoxy-2,2,2-trifluoroethyl)-3-((2-methylpyrimidin-5-yl)amino)phenyl)pentanoic acid] |
| 40 nM | CCO[C@H](c1ccc([C@H](CC)CC(=O)O)cc1Nc1cnc(CC)nc1)C(F)(F)F (relative stereo) [Example 18, (R)-3-(4-((R)-1-ethoxy-2,2,2-trifluoroethyl)-3-((2-ethylpyrimidin-5-yl)amino)phenyl)pentanoic acid] |
| 150 nM | CC[C@H](CC(=O)O)c1ccc([C@@H](OC)C(F)(F)F)c(Nc2cnc(C)nc2)c1 (relative stereo) [Example 90, (R)-3-(3-((2-methylpyrimidin-5-yl)amino)-4-((R)-2,2,2-trifluoro-1-methoxyethyl)phenyl)pentanoic acid] |
| 10 nM | CCOc1ncc(Nc2cc([C@H](CC)CC(=O)O)ccc2[C@H](OC)C(F)(F)F)cn1 (relative stereo) [Example 95, (R)-3-(3-((2-ethoxypyrimidin-5-yl)amino)-4-((S)-2,2,2-trifluoro-1-methoxyethyl)phenyl)pentanoic acid] |
| 890 nM | CCc1ncc(Nc2cc([C@@H](COC)CC(=O)O)ccc2[C@H](CC)N2CCOCC2)cn1 (relative stereo) [Example 102, (S)-3-(3-((2-ethylpyrimidin-5-yl)amino)-4-((S)-1-morpholinopropyl)phenyl)-4-methoxybutanoic acid] |
| 380 nM | CC[C@H](c1ccc([C@@H](COC)CC(=O)O)cc1Nc1ccc(Cl)cc1)N1CCOCC1 (relative stereo) [Example 110, (S)-3-(3-((4-chlorophenyl)amino)-4-((R)-1-morpholinopropyl)phenyl)-4-methoxybutanoic acid] |
| 80 nM | CC[C@H](CC(=O)O)c1ccc([C@@H](CC)N2CCOCC2)c(Nc2cnc(C)nc2)c1 (relative stereo) [Example 120, (R)-3-(3-((2-methylpyrimidin-5-yl)amino)-4-((R)-1-morpholinopropyl)phenyl)pentanoic acid] |
| 30 nM | CC[C@H](CC(=O)O)c1ccc([C@@H](CC)N2CCOCC2)c(Nc2ccc(COC)nc2)c1 (relative stereo) [Example 121, (R)-3-(3-((6-(methoxymethyl)pyridin-3-yl)amino)-4-((R)-1-morpholinopropyl)phenyl)pentanoic acid] |
| 90 nM | CC[C@@H](CC(=O)O)c1ccc([C@@H](CC)N2CCOCC2)c(Nc2cnc(C(F)(F)F)nc2)c1 (relative stereo) [Example 130, (S)-3-(4-((R)-1-morpholinopropyl)-3-((2-(trifluoromethyl)pyrimidin-5-yl)amino)phenyl)pentanoic acid] |
| 20 nM | CCO[C@H](c1ccc([C@H](CC)CC(=O)O)cc1Nc1cnc(OC)nc1)C(F)(F)F (single isomer, unassigned) [Example 10] |

Same assay, conditions: HeLa cells, IFNγ 25 ng/mL, 48 hour incubation; read-out: IDO Hela IC50 class (A < 50, B < 250, C < 2000)

| SMILES | IC50 |
| --- | --- |
| CCO[C@H](c1ccc([C@@H](COC)CC(=O)O)cc1Nc1ncc(F)cn1)C(F)(F)F (relative stereo) [Example 64, (S)-3-(4-((R)-1-ethoxy-2,2,2-trifluoroethyl)-3-((5-fluoropyrimidin-2-yl)amino)phenyl)-4-methoxybutanoic acid] | 250 to 2000 nM |
| CC[C@H](CC(=O)O)c1ccc([C@@H](OC)C(F)(F)F)c(Nc2ccc(C#N)cc2)c1 (relative stereo) [Example 89, (R)-3-(3-((4-cyanophenyl)amino)-4-((R)-2,2,2-trifluoro-1-methoxyethyl)phenyl)pentanoic acid] | < 50 nM |
| CCO[C@H](c1ccc([C@H](CC)CC(=O)O)cc1Nc1ccc(C#N)cc1)C(F)(F)F (single isomer, unassigned) [Example 15] | < 50 nM |

Other lines, results leading:

| IC50 | SMILES |
| --- | --- |
| < 50 nM | CCO[C@H](c1ccc([C@@H](CC)CC(=O)O)cc1Nc1ccc(F)cc1)C(F)(F)F (relative stereo) [Example 30, (S)-3-(4-((R)-1-ethoxy-2,2,2-trifluoroethyl)-3-((4-fluorophenyl)amino)phenyl)pentanoic acid] |
| < 50 nM | CC[C@@H](c1ccc([C@@H](COC)CC(=O)O)cc1Nc1ccc(Cl)cc1)N1CCOCC1 (relative stereo) [Example 105, (S)-3-(3-((4-chlorophenyl)amino)-4-((S)-1-morpholinopropyl)phenyl)-4-methoxybutanoic acid] |
| 250 to 2000 nM | CCc1ncc(Nc2cc([C@@H](COC)CC(=O)O)ccc2[C@@H](CC)N2CCOCC2)cn1 (relative stereo) [Example 107, (S)-3-(3-((2-ethylpyrimidin-5-yl)amino)-4-((R)-1-morpholinopropyl)phenyl)-4-methoxybutanoic acid] |
| 250 to 2000 nM | CC[C@H](c1ccc([C@@H](COC)CC(=O)O)cc1Nc1ccc(COC)nc1)N1CCOCC1 (relative stereo) [Example 109, (S)-4-methoxy-3-(3-((6-(methoxymethyl)pyridin-3-yl)amino)-4-((R)-1-morpholinopropyl)phenyl)butanoic acid] |
| 50 to 250 nM | CC[C@H](c1ccc([C@@H](COC)CC(=O)O)cc1Nc1ccc(Cl)cc1)N1CCOCC1 (relative stereo) [Example 110, (S)-3-(3-((4-chlorophenyl)amino)-4-((R)-1-morpholinopropyl)phenyl)-4-methoxybutanoic acid] |
| < 50 nM | CC[C@H](CC(=O)O)c1ccc([C@@H](CC)N2CCOCC2)c(Nc2ccc(C#N)cc2)c1 (relative stereo) [Example 122, (R)-3-(3-((4-cyanophenyl)amino)-4-((R)-1-morpholinopropyl)phenyl)pentanoic acid] |
| < 50 nM | CC[C@H](CC(=O)O)c1ccc([C@@H](CC)N2CCOCC2)c(Nc2ccc(Cl)cc2)c1 (relative stereo) [Example 123, (R)-3-(3-((4-chlorophenyl)amino)-4-((R)-1-morpholinopropyl)phenyl)pentanoic acid] |
| 250 to 2000 nM | CC[C@@H](CC(=O)O)c1ccc([C@@H](CC)N2CCOCC2)c(Nc2ccc(COC)nc2)c1 (relative stereo) [Example 131, (S)-3-(3-((6-(methoxymethyl)pyridin-3-yl)amino)-4-((R)-1-morpholinopropyl)phenyl)pentanoic acid] |
| 250 to 2000 nM | CC[C@@H](CC(=O)O)c1ccc([C@@H](CC)N2CCOCC2)c(Nc2ccc(OC(F)F)cn2)c1 (relative stereo) [Example 133, (S)-3-(3-((5-(difluoromethoxy)pyridin-2-yl)amino)-4-((R)-1-morpholinopropyl)phenyl)pentanoic acid] |
